According to US20070043327A1, “Drug delivery device comprising a mesh sleeve” (priority 2003, published 2007):

Legend:
[1] = clinical study: circulating plasma concentrations of mefenamic acid after intravaginal devices; type: in vivo; settings: human volunteers, intravaginal tampon with directly attached coupons
Method: The purpose of the device described here is to administer mefenamic acid via the intravaginal route. In one clinical study, intravaginal devices, using the direct process of attachment of coupons to tampons were prepared to cGMP (Good Manufacturing Procedure); devices were prepared containing 20, 40 or 80 mg per tampon.
These were administered to human volunteers in a study conforming to Good Clinical Procedure and circulating plasma concentrations of mefenamic acid were determined after drawing blood samples.

[2] = release of mefenamic acid from intravaginal devices into water; type: physicochemical; settings: 100 ml water, stirred gently, six devices
Source text: The final intra-vaginal devices, namely coupons fixed directly to tampons or coupons fixed to tampons via the sleeve were then compared for their ability to release an active pharmaceutical, in this case mefenamic acid, when placed in an aqueous environment. This enabled functional ‘equivalence’ of the devices to be confirmed. Intravaginal devices constructed by the direct application of coupons to tampons were compared to intravaginal devices constructed using the mesh sleeve. Devices were placed in beakers containing 100 ml water and stirred gently for varying periods of time. The fluid phase was removed brought to a […] with sodium hydroxide and the concentration of mefenamic determined by spectrophotometry.

[3] = 20 mg mefenamic acid per tampon
[4] = 40 mg mefenamic acid per tampon
[5] = 80 mg mefenamic acid per tampon

Accumulated dose (0-7) [1, 3]: 44.7
Max. plasma conc. [1, 3]: 4.23 ng/mL
Accumulated dose (0-7) [1, 4]: 197
Max. plasma conc. [1, 4]: 14.9 ng/mL
Accumulated dose (0-7) [1, 5]: 257
Max. plasma conc. [1, 5]: 19.5 ng/mL
mefenamic acid recovered in the aqueous phase (mean) ([2]; devices with coupons attached via the mesh sleeve, 80 mg per sleeve): 73.7 mg
mefenamic acid recovered in the aqueous phase (mean) ([2]; devices with coupons directly attached to tampons, 80 mg per tampon): 72.8 mg
SMILES: Cc1cccc(Nc2ccccc2C(=O)O)c1C [mefenamic acid, 2-[2,3-Dimethylphenylamino] benzoid acid]
